Measured values reported in patent publication US8492346B2, “Methods of use of epsilon inhibitor compounds for the attenuation of pain” (KAI Pharmaceuticals, Inc., priority 2007, dated 2013).

Test system: L5 nerve transection-induced allodynia and hyperalgesia
Assay: Chung (L5 spinal nerve transection) neuropathic pain model
Type: in vivo, rat
Description: The Chung (L5 nerve transection) is a well-known model for chronic (neuropathic) pain. […]
The activity of KAI-1678 has been evaluated in the L5 transection model or modified Chung model, is a mononeuropathic pain model in which the L5 spinal nerve is surgically transected, resulting in rapid development of sustained pain. The activity of KAI-1678 in this model is described below.
The rat L5 spinal nerve transection model has been used to evaluate the response to modulators of neuropathic pain. In the studies described below surgical transaction of the L5 spinal nerve was used to elicit mechanical allodynia, mechanical hyperalgesia and thermal hyperalgesia that characterize neuropathic pain. In this model, the neuropathic effects develop within a day and are reported to last for 1-2 months.
Mechanical allodynia and mechanical hyperalgesia are measured using calibrated von Frey filaments to elicit a flexion withdrawal response (paw withdrawal response) by pressing them against the plantar surface of the hindpaw on the same side as the nerve transection. The 2 g, 6 g and 10 g von Frey filaments are used to assess allodynia since these stimuli are normally innocuous to naïve animals. The 15 g, 26 g and 60 g filaments are used to assess algesia (response to noxious stimulus) since these stimuli elicit paw withdrawals in naïve animals and are considered to represent painful stimuli.
The existence of the disease state following nerve transection is confirmed based on tests performed with the 2 g and the 10 g filaments.
Once the disease state is confirmed, evaluation of the extent of mechanical allodynia or hyperalgesia is determined by observing the number of paw withdrawals in responsse to 5 tests with each of the von Frey filaments. Results are typically expressed either as the total number of paw withdrawals for the allodynic filaments (2 g, 6 g and 10 g for a total of 15 tests) or the algesic filaments (15 g, 26 g and 60 g for a total of 15 tests), or as the lowest filament to which the animals in a group have an average positive response defined as ≧3 withdrawals out of 5 tests with a particular filament. […]
Rats given an L5 spinal nerve transection were treated with a bolus subcutaneous dose of KAI-1678 ranging from 0.00025-0.25 mcg/rat (˜0.001-1 mcg/kg) on day 7 post-transection. The degree of mechanical allodynia and hyperalgesia was evaluated based on the number of paw withdrawals (out of 30) in response to 6 different von Frey filaments before and up to 3 hours after administration of the compound.

[1] = subcutaneous bolus 0.1 and 1 mcg/kg

Ac-EAVSLKPTGGYGRKKRRQRRR-NH2 [KAI-1678]
Mechanical allodynia, 10 g filament (minipump 0.025 and 0.25 mcg/day, lasted until Day 7 post-pump implantation): nearly complete reversal of mechanical allodynia | Duration of anti-hyperalgesic effect [1]: at least 2 hours | Mechanical hyperalgesia, 15 g, 26 g and 60 g von Frey filaments [1]: completely reverses mechanical hyperalgesia | Doses giving dose-dependent decrease in mechanical allodynia and mechanical hyperalgesia (subcutaneous bolus, day 7 post-transection, FIG. 25): ≥ 0.01 µg/kg | Potency relative to carrageenan-induced inflammatory pain model (subcutaneous infusion): about 1000 fold | Dose rates substantially reducing mechanical allodynia (subcutaneous osmotic minipump, 10 g filament, FIG. 26): ≥ 0.0025 µg/day
